Test results: US5677276A, “Immobilization of peptides to hyaluronate” (La Jolla Cancer Research Foundation, priority 1995, dated 1997)
Square brackets hold non-standard residues; d marks the D form. Ends that are not written are not given here.

Experiments:
cells = assay: Standard cell attachment assay; format: cell-based; set-up: key: + = positive cell attachment; - = no cell attachment; settings: for CELL ATTACHMENT ASSAY RESULTS, SODIUM PERIODATE: peptide coupled to HA by sodium periodate method; for CELL ATTACHMENT ASSAY RESULTS, TRESYL CHLORIDE: peptide coupled to HA by tresyl chloride method; for CELL ATTACHMENT ASSAY RESULTS, BDDE: peptide coupled to HA by epoxide (BDDE) method
Experimental: The conjugates prepared by the above described methods, as well as conjugates containing other RGD-peptide sequences, were tested for cell attachment using the following procedures.
New subcultures are made the day before the assay and allowed to grow to 75-80% confluency. When a 100×20 mm dish was 80-90% confluent the cells were detached by adding 4 ml of trypsin/EDTA. When the cells become rounded they are suspended by adding 6 ml of complete media to the 4 ml of trypsin/EDTA (10 ml total). Forty to fifty percent of the cell suspensions were transferred to a new 100×20 mm dish and cultured as usual. One 100×20 mm dish is sufficient to perform 6 cell attachments.
Samples to be tested are placed in 0.5 ml blocking solution (HBSS, 3% BSA, 25 mM Hepes pH 7.0) until needed. Each 100×20 mm dish was trypsinized using 4 ml of trypsin/EDTA for approximately 10 minutes or until cells were easily detached. Cells should not be detached too soon or they will remain aggregated during the cell attachment assay. It is desirable to obtain a good single cell suspension. If clumps of cells are observed let them settle out before using and adjust for the loss of cells in the assay.
The cells were detached from the plate using 6 ml of serum free media (SFM) supplemented with ITS+ (Insulin Transferrin Selenium (Collaborative Research, Inc., Bedford, Mass.), SFM+ITS+=SFM+) for a total volume of 10 ml (4 ml of trypsin/EDTA+6 ml of SFM+). The cells were centrifuged one time to pellet the cells and then they were resuspended in 5 ml of soybean trypsin inhibitor (SBTI) diluted in SFM+. The cells were incubated in SBTI/SFM+ for 10 minutes in a 37° C. water bath. While trypsin was being inactivated, the blocking buyer was removed and the samples suspended in 1 ml of SFM+.
Cells were centrifuged 1 time to remove SBTI. Resuspended cells in 6 ml of SFM+ created a good single cell suspension. If necessary, the resuspended cells can sit on the bench for 5 minutes to let aggregates settle to the bottom before applying to the matrices. Approximately 1 ml of cell suspension per matrix (1-2 mg) was used. The matrix/cells were placed on a rocker in the incubator and cell attachment allowed to go for one to one and half hours. Thereafter, samples were transferred to a 12 well dish and washed 2 times with PBS using an orbital shaker. Neutral red solution (diluted 1:100) was added to PBS and incubated with the cells for 20 minutes on an orbital shaker. Two mls of stain/fix (PBS, 8% formaldehyde, crystal violet 0.0008%) was added and staining allowed to proceed for 2 hours at room temperature on the orbital shaker. Formaldehyde solution was removed and distilled water added. Cell attachment was assessed by microscopy.

[1] = system: full thickness wounds in guinea pigs; assay: Full thickness wounds in guinea pigs; format: in vivo, guinea pig; settings: Alcian staining; for residence time in the wound bed: Epoxide (BDDE) method; for residence time: Sodium periodate method; for residence time in the dermal wound: Tresyl chloride method, BDDE cross-linked HA created at pH 6
Experimental: Following the procedures for the full thickness wound model in guinea pigs described in Cheng et al., Arch. Dermatol. 124:221-226 (1988), which is incorporated herein by reference, various peptide-HA conjugates prepared by the above-described methods were analyzed.
The residence times were determined by Alcian staining and were as follows: […]

Q: How did the “CELL ATTACHMENT ASSAY RESULTS, SODIUM PERIODATE” value (cells) turn out when “Ac G R R R R R G G G R G D I P KNH2 (Ac-GRRRRRGGGRGDIPK-NH2; also: hyaluronate conjugate) [SEQ ID No. 13, RGD peptide, tested conjugated to hyaluronate (HA)]” was run?
A: +

Q: And the “CELL ATTACHMENT ASSAY RESULTS, TRESYL CHLORIDE” value (cells)?
A: +

Q: What does the source list for “Ac G dR dR dR dR dR G G G dR G D S P A S S K (Ac-G[dR][dR][dR][dR][dR]GGG[dR]GDSPASSK; also: hyaluronate conjugate) [SEQ ID No. 5, RGD peptide, tested conjugated to hyaluronate (HA)]”?
A: CELL ATTACHMENT ASSAY RESULTS, BDDE (cells): +; CELL ATTACHMENT ASSAY RESULTS, SODIUM PERIODATE (cells): +; residence time in the wound bed [1]: 7 to 10 days; residence time [1]: 7 to 10 days; residence time in the dermal wound [1]: 10 to 14 days

Q: With “Ac R R G R G D I P KNH2 (Ac-RRGRGDIPK-NH2; also: hyaluronate conjugate) [SEQ ID No. 14, RGD peptide, tested conjugated to hyaluronate (HA)]” as the substance, how does the “CELL ATTACHMENT ASSAY RESULTS, SODIUM PERIODATE” value (cells) read?
A: -

Q: And the “CELL ATTACHMENT ASSAY RESULTS, TRESYL CHLORIDE” value (cells)?
A: +

Q: What does the source list for “Ac R R R G G R G D I P KNH2 (Ac-RRRGGRGDIPK-NH2; also: hyaluronate conjugate) [SEQ ID No. 6, RGD peptide, tested conjugated to hyaluronate (HA)]”?
A: CELL ATTACHMENT ASSAY RESULTS, BDDE (cells): +; CELL ATTACHMENT ASSAY RESULTS, SODIUM PERIODATE (cells): -; CELL ATTACHMENT ASSAY RESULTS, TRESYL CHLORIDE (cells): +

Q: What does the source list for “G R R G R R G R G D I P TNH2 (GRRGRRGRGDIPT-NH2; also: hyaluronate conjugate) [SEQ ID No. 18, RGD peptide, tested conjugated to hyaluronate (HA)]”?
A: CELL ATTACHMENT ASSAY RESULTS, BDDE (cells): -; CELL ATTACHMENT ASSAY RESULTS, SODIUM PERIODATE (cells): +

Q: “G R R G R R G R G D TNH2 (GRRGRRGRGDT-NH2; also: hyaluronate conjugate) [SEQ ID No. 19, RGD peptide, tested conjugated to hyaluronate (HA)]” was tested. Which residence time [1] did it give?
A: 7 to 10 days

Q: What does the source list for “G R R R G G G R G D I P TNH2 (GRRRGGGRGDIPT-NH2; also: hyaluronate conjugate) [SEQ ID No. 8, RGD peptide, tested conjugated to hyaluronate (HA)]”?
A: CELL ATTACHMENT ASSAY RESULTS, BDDE (cells): +; CELL ATTACHMENT ASSAY RESULTS, SODIUM PERIODATE (cells): -; CELL ATTACHMENT ASSAY RESULTS, TRESYL CHLORIDE (cells): +

Q: What does the source list for “G R R R G G R G D I P TNH2 (GRRRGGRGDIPT-NH2; also: hyaluronate conjugate) [SEQ ID No. 9, RGD peptide, tested conjugated to hyaluronate (HA)]”?
A: CELL ATTACHMENT ASSAY RESULTS, BDDE (cells): +; CELL ATTACHMENT ASSAY RESULTS, SODIUM PERIODATE (cells): -; CELL ATTACHMENT ASSAY RESULTS, TRESYL CHLORIDE (cells): +

Q: For “G R R R G G R G D I PNH2 (GRRRGGRGDIP-NH2; also: hyaluronate conjugate) [SEQ ID No. 7, RGD peptide, tested conjugated to hyaluronate (HA)]”, which “CELL ATTACHMENT ASSAY RESULTS, BDDE” value (cells) is on record?
A: +

Q: What about the “CELL ATTACHMENT ASSAY RESULTS, SODIUM PERIODATE” value (cells) of the same substance?
A: -

Q: What about the “CELL ATTACHMENT ASSAY RESULTS, TRESYL CHLORIDE” value (cells) of the same substance?
A: +

Q: How did the “CELL ATTACHMENT ASSAY RESULTS, BDDE” value (cells) turn out when “G R R R R G G G R G D I P TNH2 (GRRRRGGGRGDIPT-NH2; also: hyaluronate conjugate) [SEQ ID No. 4, RGD peptide, tested conjugated to hyaluronate (HA)]” was run?
A: +

Q: What about the “CELL ATTACHMENT ASSAY RESULTS, SODIUM PERIODATE” value (cells) of the same substance?
A: +

Q: And the “CELL ATTACHMENT ASSAY RESULTS, TRESYL CHLORIDE” value (cells)?
A: +

Q: With “G R R R R R G G G R G D I PNH2 (GRRRRRGGGRGDIP-NH2; also: hyaluronate conjugate) [SEQ ID No. 12, RGD peptide, tested conjugated to hyaluronate (HA)]” as the substance, how does the “CELL ATTACHMENT ASSAY RESULTS, SODIUM PERIODATE” value (cells) read?
A: +

Q: And the “CELL ATTACHMENT ASSAY RESULTS, TRESYL CHLORIDE” value (cells)?
A: +

Q: What about the residence time [1] of the same substance?
A: 7 to 10 days

Q: For “G R R R R R G G R G D I P TNH2 (GRRRRRGGRGDIPT-NH2; also: hyaluronate conjugate) [SEQ ID No. 3, RGD peptide, tested conjugated to hyaluronate (HA)]”, which “CELL ATTACHMENT ASSAY RESULTS, BDDE” value (cells) is on record?
A: +

Q: And the “CELL ATTACHMENT ASSAY RESULTS, SODIUM PERIODATE” value (cells)?
A: +

Q: And the “CELL ATTACHMENT ASSAY RESULTS, TRESYL CHLORIDE” value (cells)?
A: +

Q: Which “CELL ATTACHMENT ASSAY RESULTS, BDDE” value (cells) does the source give for “G R R R R R G R G D I P TNH2 (GRRRRRGRGDIPT-NH2; also: hyaluronate conjugate) [SEQ ID No. 2, RGD peptide, tested conjugated to hyaluronate (HA)]” here?
A: +

Q: And the “CELL ATTACHMENT ASSAY RESULTS, SODIUM PERIODATE” value (cells)?
A: +

Q: And the “CELL ATTACHMENT ASSAY RESULTS, TRESYL CHLORIDE” value (cells)?
A: +

Q: For “G dR dR dR dR dR G G G dR G D S P A S S K (G[dR][dR][dR][dR][dR]GGG[dR]GDSPASSK; also: hyaluronate conjugate) [SEQ ID No. 1, RGD peptide, tested conjugated to hyaluronate (HA)]”, which “CELL ATTACHMENT ASSAY RESULTS, BDDE” value (cells) is on record?
A: +

Q: And the “CELL ATTACHMENT ASSAY RESULTS, SODIUM PERIODATE” value (cells)?
A: +

Q: And the “CELL ATTACHMENT ASSAY RESULTS, TRESYL CHLORIDE” value (cells)?
A: +

Q: And the “residence time in the wound bed” value [1]?
A: 7 to 10 days

Q: What about the residence time [1] of the same substance?
A: at least 30 days

Q: What about the “residence time in the dermal wound” value [1] of the same substance?
A: 10 to 14 days

Q: How did the “CELL ATTACHMENT ASSAY RESULTS, BDDE” value (cells) turn out when “R R R G R G D I P TNH2 (RRRGRGDIPT-NH2; also: hyaluronate conjugate) [SEQ ID No. 11, RGD peptide, tested conjugated to hyaluronate (HA)]” was run?
A: +

Q: “R R R R G R G D I P TNH2 (RRRRGRGDIPT-NH2; also: hyaluronate conjugate) [SEQ ID No. 10, RGD peptide, tested conjugated to hyaluronate (HA)]” was tested. Which “CELL ATTACHMENT ASSAY RESULTS, BDDE” value (cells) did it give?
A: +

Q: What about the “CELL ATTACHMENT ASSAY RESULTS, SODIUM PERIODATE” value (cells) of the same substance?
A: +
